# Results reported in publication PMC5993337, “De novo biosynthesis of sterols and fatty acids in the Trypanosoma brucei procyclic form: Carbon source preferences and metabolic flux redistributions” (PLoS Pathogens, 2018).
# Target: T1, IVDH (isovaleryl-CoA dehydrogenase), his-tagged recombinant T. brucei IVDH (Trypanosoma brucei, UniProt Q387A0)
# T1 construct: gene Tb11.55.0026; lacks N-terminal 13 residues (gene positions 41 to 1234 bp), 6 His codons at 3' end, pET28, E. coli BL21(DE3) with GroEL-ES
# T1 sequence (Q387A0 14-411): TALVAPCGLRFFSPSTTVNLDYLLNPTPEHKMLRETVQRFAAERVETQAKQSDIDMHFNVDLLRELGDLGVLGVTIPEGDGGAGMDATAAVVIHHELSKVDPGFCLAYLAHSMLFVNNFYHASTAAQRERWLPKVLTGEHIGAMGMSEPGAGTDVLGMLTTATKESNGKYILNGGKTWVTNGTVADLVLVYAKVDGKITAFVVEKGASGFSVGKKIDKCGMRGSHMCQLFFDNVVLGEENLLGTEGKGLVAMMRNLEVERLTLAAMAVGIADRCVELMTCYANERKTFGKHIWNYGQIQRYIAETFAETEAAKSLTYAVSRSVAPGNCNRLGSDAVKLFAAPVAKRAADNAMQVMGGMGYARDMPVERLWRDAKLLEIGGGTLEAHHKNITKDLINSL
# Test: spectrophotometric dye-reduction assay ([…],6-dichloroindophenol, […] nm)
# Format: biochemical
# Conditions: isovaleryl-CoA 52.5 uM, phenazine methosulfate 1.5 mM, FAD 10 uM, 100 mM KPi pH 7.0, 25 °C
smiles,measurement,value
CC(C)CC(=O)SCCNC(=O)CCNC(=O)[C@H](O)C(C)(C)COP(=O)(O)OP(=O)(O)OC[C@H]1O[C@@H](n2cnc3c(N)ncnc32)[C@H](O)[C@@H]1OP(=O)(O)O [isovaleryl-CoA],"spectrophotometric dye-reduction assay (2,6-dichloroindophenol, 600 nm)",specific activity of the his-tagged recombinant T. brucei IVDH purified to homogeneity for its substrate
